# Biological target: indoleamine 2, 3-dioxygenase (IDO1) (Homo sapiens, UniProt P14902)
# Test: PBMC IDO1 assay (kynurenine via mass spectrometry)
# Format: cell-based
# Conditions: not given
# Description: Compounds of the present invention were tested via high-throughput cellular assays utilizing detection of kynurenine via mass spectrometry and cytotoxicity as end-points. For the mass spectrometry and cytotoxicity assays, human peripheral blood mononuclear cells (PBMC) (PB003F; AllCells®, Alameda, Calif.) were stimulated with human interferon-γ (IFN-γ) (Sigma-Aldrich Corporation, St. Louis, Mo.) and lipopolysaccharide from Salmonella minnesota (LPS) (Invivogen, San Diego, Calif.) to induce the expression of indoleamine 2, 3-dioxygenase (IDO1). Compounds with IDO1 inhibitory properties decreased the amount of kynurenine produced by the cells via the tryptophan catabolic pathway. Cellular toxicity due to the effect of compound treatment was measured using CellTiter-Glo® reagent (CTG) (Promega Corporation, Madison, Wis.), which is based on luminescent detection of ATP, an indicator of metabolically active cells.
# In preparation for the assays, test compounds were serially diluted 3-fold in DMSO from a typical top concentration of 5 mM and plated at 0.5 μL in 384-well, polystyrene, clear bottom, tissue culture treated plates with lids (Greiner Bio-One, Kremsmünster, Austria) to generate 11-point dose response curves. Low control wells (0% kynurenine or 100% cytotoxicity) contained either 0.5 μL of DMSO in the presence of unstimulated (-IFN-γ/-LPS) PBMCs for the mass spectrometry assay or 0.5 μL of DMSO in the absence of cells for the cytotoxicity assay, and high control wells (100% kynurenine or 0% cytotoxicity) contained 0.5 μL of DMSO in the presence of stimulated (+IFN-γ/+LPS) PBMCs for both the mass spectrometry and cytotoxicity assays.
# Frozen stocks of PBMCs were washed and recovered in RPMI 1640 medium (Thermo Fisher Scientific, Inc., Waltham, Mass.) supplemented with 10% v/v heat-inactivated fetal bovine serum (FBS) (Thermo Fisher Scientific, Inc., Waltham, Mass.), and 1× penicillin-streptomycin antibiotic solution (Thermo Fisher Scientific, Inc., Waltham, Mass.). The cells were diluted to 1,000,000 cells/mL in the supplemented RPMI 1640 medium. 50 μL of either the cell suspension, for the mass spectrometry assay, or medium alone, for the cytotoxicity assay, were added to the low control wells, on the previously prepared 384-well compound plates, resulting in 50,000 cells/well or 0 cells/well respectively. IFN-γ and LPS were added to the remaining cell suspension at final concentrations of 100 ng/ml and 50 ng/ml respectively, and 50 μL of the stimulated cells were added to all remaining wells on the 384-well compound plates. The plates, with lids, were then placed in a 37° C., 5% CO2 humidified incubator for 2 days.
# Following incubation, the 384-well plates were removed from the incubator and allowed to equilibrate to room temperature for 30 minutes. For the cytotoxicity assay, CellTiter-Glo® was prepared according to the manufacturer's instructions, and 40 μL were added to each plate well. After a twenty minute incubation at room temperature, luminescence was read on an EnVision® Multilabel Reader (PerkinElmer Inc., Waltham, Mass.). For the mass spectrometry assay, 10 μL of supernatant from each well of the compound-treated plates were added to 40 μL of acetonitrile, containing 10 μM of an internal standard for normalization, in 384-well, polypropylene, V-bottom plates (Greiner Bio-One, Kremsmünster, Austria) to extract the organic analytes. Following centrifugation at 2000 rpm for 10 minutes, 10 μL from each well of the acetonitrile extraction plates were added to 90 μL of sterile, distilled H2O in 384-well, polypropylene, V-bottom plates for analysis of kynurenine and the internal standard on the RapidFire 300 (Agilent Technologies, Santa Clara, Calif.) and 4000 QTRAP MS (SCIEX, Framingham, Mass.). MS data were integrated using Agilent Technologies' RapidFire Integrator software, and data were normalized for analysis as a ratio of kynurenine to the internal standard. […]
# Sequence of indoleamine 2, 3-dioxygenase (IDO1) (P14902 whole entry): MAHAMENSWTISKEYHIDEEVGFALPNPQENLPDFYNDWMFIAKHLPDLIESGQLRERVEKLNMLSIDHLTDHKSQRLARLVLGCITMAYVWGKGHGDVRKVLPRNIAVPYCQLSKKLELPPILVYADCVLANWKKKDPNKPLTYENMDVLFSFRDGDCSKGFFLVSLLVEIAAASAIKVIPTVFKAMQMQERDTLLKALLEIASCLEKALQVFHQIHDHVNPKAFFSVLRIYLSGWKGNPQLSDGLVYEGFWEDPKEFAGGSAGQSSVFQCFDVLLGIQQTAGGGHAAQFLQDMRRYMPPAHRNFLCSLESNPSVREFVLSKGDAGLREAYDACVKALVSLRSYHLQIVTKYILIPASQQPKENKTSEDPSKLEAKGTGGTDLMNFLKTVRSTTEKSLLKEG
row,Structure (SMILES),IC50 [nM]
1,"COc1ncccc1OC(=O)N1CCC(C(CC(C)C)NC(=O)c2ccc(F)cc2)CC1 (centres unmarked) [Example 30, 2-methoxypyridin-3-yl 4-{1-[(4-fluorophenyl)formamido]-3-methylbutyl}piperidine-1-carboxylate]",5.01
2,"O=C(N[C@H](c1ccccc1)C1CCN(C(=O)Oc2cccnc2F)CC1)c1ccc(Cl)cc1 [Example 31, 2-fluoropyridin-3-yl 4-[(S)-[(4-chlorophenyl)formamido](phenyl)methyl]piperidine-1-carboxylate]",5.01
3,"CC(C)CC(NC(=O)c1ccc(Cl)cc1)C1CCN(C(=O)Oc2cccnc2C(C)C)CC1 (centres unmarked) [Example 34, 2-(propan-2-yl)pyridin-3-yl 4-{1-[(4-chlorophenyl)formamido]-3-methylbutyl}piperidine-1-carboxylate]",6.31
4,"CC(C)CC(NC(=O)c1ccc(F)cc1)C1CCN(C(=O)Oc2cncc(F)c2)CC1 (centres unmarked) [Example 45, 5-fluoropyridin-3-yl 4-{1-[(4-fluorophenyl)formamido]-3-methylbutyl}piperidine-1-carboxylate]",10
5,"COc1ncccc1OC(=O)N1CCC([C@H](NC(=O)c2ccc(Cl)cc2)c2ccccc2)CC1 [Example 49, 2-methoxypyridin-3-yl 4-[(S)-[(4-chlorophenyl)formamido](phenyl)methyl]piperidine-1-carboxylate]",10

# Same assay, conditions: human PBMC stimulated with IFN-γ and LPS, 2 days, kynurenine by mass spectrometry; recorded as pIC50; read-out: PBMC PXC50_ (converted)
row,Structure (SMILES),IC50 [nM]
1,"CC(C)CC(NC(=O)c1ccc(F)cc1)C1CCN(C(=O)Oc2ccccc2)CC1 (centres unmarked) [Example 37, phenyl 4-{1-[(4-fluorophenyl)formamido]-3-methylbutyl}piperidine-1-carboxylate]",7.94
2,"CC(C)CC(NC(=O)c1ccccc1)C1CCN(C(=O)Oc2ccccc2)CC1 (centres unmarked) [Example 39, phenyl 4-[3-methyl-1-(phenylformamido)butyl]piperidine-1-carboxylate]",7.94
3,"Cc1cccc(OC(=O)N2CCC(C(CC(C)C)NC(=O)c3ccc(F)cc3)CC2)c1C (centres unmarked) [Example 40, 2,3-dimethylphenyl 4-{1-[(4-fluorophenyl)formamido]-3-methylbutyl}piperidine-1-carboxylate]",7.94
4,"CC(C)CC(NC(=O)c1ccc(F)cc1)C1CCN(C(=O)Oc2cccc(C#N)c2F)CC1 (centres unmarked) [Example 41, 3-cyano-2-fluorophenyl 4-{1-[(4-fluorophenyl)formamido]-3-methylbutyl}piperidine-1-carboxylate]",7.94
5,"COCCC[C@@H](NC(=O)c1ccc(F)cc1)C1CCN(C(=O)Oc2cccc(F)c2C)CC1 [Example 42, 3-fluoro-2-methylphenyl 4-[(1R)-1-[(4-fluorophenyl)formamido]-4-methoxybutyl]piperidine-1-carboxylate]",7.94
6,"O=C(NC(c1ccccc1)C1CCN(C(=O)Oc2ccccc2)CC1)c1ccccc1 (centres unmarked) [Example 43, phenyl 4-[phenyl(phenylformamido)methyl]piperidine-1-carboxylate]",10
7,"CC(C)CC(NC(=O)c1ccc(F)cc1)C1CCN(C(=O)Oc2ccncc2F)CC1 (centres unmarked) [Example 47, 3-fluoropyridin-4-yl 4-{1-[(4-fluorophenyl)formamido]-3-methylbutyl}piperidine-1-carboxylate]",10
8,"CC(C)CC(NC(=O)c1ccc(F)cc1)C1CCN(C(=O)Oc2ccc(F)cc2)CC1 (centres unmarked) [Example 50, 4-fluorophenyl 4-{1-[(4-fluorophenyl)formamido]-3-methylbutyl}piperidine-1-carboxylate]",12.6
9,"O=C(NC(c1ccccc1)C1CCN(C(=O)Oc2ccccc2)CC1)c1ccc(Cl)c(F)c1 (centres unmarked) [Example 53, phenyl 4-{[(4-chloro-3-fluorophenyl)formamido](phenyl)methyl}piperidine-1-carboxylate]",20
10,"COc1cccc(OC(=O)N2CCC(C(CC(C)C)NC(=O)c3ccc(F)cc3)CC2)c1 (centres unmarked) [Example 54, 3-methoxyphenyl 4-{1-[(4-fluorophenyl)formamido]-3-methylbutyl}piperidine-1-carboxylate]",20
11,"CC(C)CC(NC(=O)c1ccc(F)cc1)C1CCN(C(=O)Oc2ccnc(F)c2)CC1 (centres unmarked) [Example 55, 2-fluoropyridin-4-yl 4-{1-[(4-fluorophenyl)formamido]-3-methylbutyl}piperidine-1-carboxylate]",20
12,"COc1ccc(C(=O)NC(c2ccccc2)C2CCN(C(=O)Oc3ccccc3)CC2)cc1F (centres unmarked) [Example 57, phenyl 4-{[(3-fluoro-4-methoxyphenyl)formamido](phenyl)methyl}piperidine-1-carboxylate]",39.8
13,"CC(C)C[C@H](NC(=O)c1ccc(Cl)s1)C1CCN(C(=O)Oc2ccccc2)CC1 [Example 58, phenyl 4-[(1S)-1-[(5-chlorothiophen-2-yl)formamido]-3-methylbutyl]piperidine-1-carboxylate]",39.8

# More lines, now with the values ahead:
row,IC50 [nM],Structure (SMILES)
1,5.01,"Cc1ccc(C(=O)N[C@H](C2CC2)C2CCN(C(=O)Oc3ccnc(C)c3C)CC2)s1 [Example 32, 2,3-dimethylpyridin-4-yl 4-[(R)-cyclopropyl[(5-methylthiophen-2-yl)formamido]methyl]piperidine-1-carboxylate]"
2,6.31,"Cc1c(OC(=O)N2CCC(C(CC(C)C)NC(=O)c3ccc(F)cc3)CC2)ccnc1F (centres unmarked) [Example 33, 2-fluoro-3-methylpyridin-4-yl 4-{1-[(4-fluorophenyl)formamido]-3-methylbutyl}piperidine-1-carboxylate]"
3,6.31,"Cc1nccc(OC(=O)N2CCC(C(CC(C)C)NC(=O)c3ccc(Cl)cc3)CC2)c1C (centres unmarked) [Example 35, 2,3-dimethylpyridin-4-yl 4-{1-[(4-chlorophenyl)formamido]-3-methylbutyl}piperidine-1-carboxylate]"
4,6.31,"Cc1c(F)cccc1OC(=O)N1CCC([C@@H](C)NC(=O)c2ccc(Cl)s2)CC1 [Example 36, 3-fluoro-2-methylphenyl 4-[(1R)-1-[(5-chlorothiophen-2-yl)formamido]ethyl]piperidine-1-carboxylate]"
5,7.94,"C[C@@H](NC(=O)c1ccc(Cl)s1)C1CCN(C(=O)Oc2ccccc2)CC1 [Example 38, phenyl 4-[(1R)-1-[(5-chlorothiophen-2-yl)formamido]ethyl]piperidine-1-carboxylate]"
6,10,"Cc1nccc(OC(=O)N2CCC(C(CC(C)C)NC(=O)c3ccc(F)cc3)CC2)c1C (centres unmarked) [Example 44, 2,3-dimethylpyridin-4-yl 4-{1-[(4-fluorophenyl)formamido]-3-methylbutyl}piperidine-1-carboxylate]"
7,10,"O=C(NC(C1CC1)C1CCN(C(=O)Oc2ccccc2)CC1)c1ccc(Cl)s1 (centres unmarked) [Example 46, phenyl 4-{[(5-chlorothiophen-2-yl)formamido](cyclopropyl)methyl}piperidine-1-carboxylate]"
8,10,"CC(C)CC(NC(=O)c1ccc(F)cc1)C1CCN(C(=O)Oc2ccnc(F)c2F)CC1 (centres unmarked) [Example 48, 2,3-difluoropyridin-4-yl 4-{1-[(4-fluorophenyl)formamido]-3-methylbutyl}piperidine-1-carboxylate]"
9,12.6,"Cc1nccc(OC(=O)N2CCC(C(CC(C)C)NC(=O)c3ccc(F)cc3)CC2)c1F (centres unmarked) [Example 51, 3-fluoro-2-methylpyridin-4-yl 4-{1-[(4-fluorophenyl)formamido]-3-methylbutyl}piperidine-1-carboxylate]"
10,15.8,"CC(NC(=O)c1ccc(Cl)s1)C1CCN(C(=O)Oc2ccccc2)CC1 (centres unmarked) [Example 52, phenyl 4-{1-[(5-chlorothiophen-2-yl)formamido]ethyl}piperidine-1-carboxylate]"
11,25.1,"Cc1c(F)cccc1OC(=O)N1CCC([C@@H](C)NC(=O)c2ccccc2)CC1 [Example 56, 3-fluoro-2-methylphenyl 4-[(1R)-1-(phenylformamido)ethyl]piperidine-1-carboxylate]"

# Reference: patent US10927078B2, “Modulators of indoleamine 2,3-dioxygenase” (GLAXOSMITHKLINE INTELLECTUAL PROPERTY DEVELOPMENT LIMITED, priority 2017, dated 2021)
